Reference: ChEMBL document CHEMBL5528067, “From Synergy to Monotherapy: Discovery of Novel 2,4,6-Trisubstituted Triazine Hydrazone Derivatives with Potent Antifungal Potency In Vitro and In Vivo” (J Med Chem, 2024)
≈ marks a conversion by molar mass, not a printed value. Calls of active or inactive are those of the source. No cut-off for these calls is given here.

Tests used:
Candida albicans [1] = test: Antifungal activity against FCZ-resistant Candida albicans strain 901 assessed as growth inhibition measured after 48 hrs incubation by CLSI based micro-dilution broth method; type: functional
Candida albicans [2] = test: Antifungal activity against FCZ-resistant Candida albicans strain 901 assessed as growth inhibition in presence of fluconazole measured after 48 hrs incubation by CLSI based micro-dilution broth method; type: functional
Candida albicans [3] = test: Synergistic antifungal activity against FCZ-resistant Candida albicans strain 901 assessed as fractional inhibitory concentration index measured after 48 hrs in presence of FCZ by CLSI based micro-dilution broth method; type: functional
Candida albicans [4] = test: Antifungal activity against FCZ-resistant Candida albicans strain 904 assessed as growth inhibition measured after 48 hrs incubation by CLSI based micro-dilution broth method; type: functional
Candida albicans [5] = test: Antifungal activity against FCZ-resistant Candida albicans strain 904 assessed as growth inhibition in presence of fluconazole measured after 48 hrs incubation by CLSI based micro-dilution broth method; type: functional
Candida albicans [6] = test: Synergistic antifungal activity against FCZ-resistant Candida albicans strain 904 assessed as fractional inhibitory concentration index measured after 48 hrs in presence of FCZ by CLSI based micro-dilution broth method; type: functional
Candida albicans [7] = test: Antifungal activity against FCZ-resistant Candida albicans SC5314 assessed as growth inhibition measured after 48 hrs incubation by CLSI based micro-dilution broth method; type: functional
Candida albicans [8] = test: Antifungal activity against FCZ-resistant Candida albicans 10231 assessed as growth inhibition measured after 48 hrs incubation by CLSI based micro-dilution broth method; type: functional
Cryptococcus neoformans = test: Antifungal activity against Cryptococcus neoformans 32609 assessed as growth inhibition measured after 48 hrs incubation by CLSI based micro-dilution broth method; type: functional
Nakaseomyces glabratus = test: Antifungal activity against Candida glabrata 537 assessed as growth inhibition measured after 48 hrs incubation by CLSI based micro-dilution broth method; type: functional
Pichia kudriavzevii = test: Antifungal activity against Candida krusei 4996 assessed as growth inhibition measured after 48 hrs incubation by CLSI based micro-dilution broth method; type: functional
Candida parapsilosis = test: Antifungal activity against Candida parapsilosis 22019 assessed as growth inhibition measured after 48 hrs incubation by CLSI based micro-dilution broth method; type: functional; conditions: Lodderomyces parapsilosis
Candida tropicalis = test: Antifungal activity against Candida tropicalis 8915 assessed as growth inhibition measured after 48 hrs incubation by CLSI based micro-dilution broth method; type: functional
[Candida] auris [9] = Antifungal activity against FCZ-resistant Candida auris 918 assessed as growth inhibition measured after 48 hrs incubation by CLSI based micro-dilution broth method; type: functional; conditions: Candidozyma auris
[Candida] auris [10] = Antifungal activity against FCZ-resistant Candida auris 919 assessed as growth inhibition measured after 48 hrs incubation by CLSI based micro-dilution broth method; type: functional; conditions: Candidozyma auris
Candida albicans [11] = test: Antifungal activity against FCZ-resistant Candida albicans strains assessed as growth inhibition measured after 48 hrs incubation by CLSI based micro-dilution broth method; type: functional
[12] = Cytotoxicity against human HUVEC cells assessed as cell viability measured after 24 hrs by CCK-8 assay; type: toxicity, cell-based
[13] = Cytotoxicity against human HUVEC cells assessed as cell viability at 16 microg/ml measured after 24 hrs by CCK-8 assay relative to control; type: toxicity, cell-based; conditions: at 16 µg/mL, read-out: Activity
[14] = Hemolytic activity in rabbit Red blood cell assessed as hemolysis rate at 64 microg/ml incubated for 1 hr; type: toxicity, cell-based, Oryctolagus cuniculus, Erythrocyte; conditions: red blood cells, at 64 µg/mL, read-out: Activity
Candida albicans [15] = test: In vivo antifungal activity against Candida albicans SC5314 infected in C57BL/6J mouse assessed as reduction in fungal burden in kidney at 10 mg/kg, po treated once a day for 2 days; type: functional, organism-based; conditions: time 2.0 day
[16] = Hemolytic activity in rabbit Red blood cell assessed as hemolysis rate at 8 microg/ml incubated for 1 hr; type: toxicity, cell-based, Oryctolagus cuniculus, Erythrocyte; conditions: red blood cells, at 8 µg/mL, read-out: Activity
[17] = Metabolic stability in mouse liver microsomes assessed as half life measured upto 60 mins by LC-MS/MS analysis; type: ADME, Microsome
[18] = Metabolic stability in mouse liver microsomes assessed as intrinsic clearance measured per mg of protein upto 60 mins by LC-MS/MS analysis; type: ADME, Microsome; conditions: read-out: CLH

SMILES | MIC80 (Candida albicans [1]) | MIC80 (Candida albicans [2]) | fractional inhibitory concentration index (FICI) (Candida albicans [3]) | MIC80 (Candida albicans [4]) | MIC80 (Candida albicans [5]) | fractional inhibitory concentration index (FICI) (Candida albicans [6]) | MIC80 (Candida albicans [7]) | MIC80 (Candida albicans [8]) | MIC80 (Cryptococcus neoformans) | MIC80 (Nakaseomyces glabratus) | MIC80 (Pichia kudriavzevii) | MIC80 (Candida parapsilosis) | MIC80 (Candida tropicalis) | MIC80 ([Candida] auris [9]) | MIC80 ([Candida] auris [10]) | other results
O=[N+]([O-])c1cccc(O)c1/C=N/Nc1nc(NCc2ccc(F)cc2)nc(NCc2ccc(F)cc2)n1 | 4 mg/L (≈ 7.9 µM) | 0.25 mg/L | 0.19 | 4 mg/L (≈ 7.9 µM) | 1 mg/L | 0.38 | > 64 mg/L | > 64 mg/L | > 64 mg/L | 2 mg/L (≈ 3.95 µM) | > 64 mg/L | > 64 mg/L | > 64 mg/L | > 64 mg/L | > 64 mg/L | MIC80 (Candida albicans [11]): 4 mg/L (≈ 7.9 µM)
NCCOCCOCCNC(=O)Cc1ccc(Nc2nc(NCc3ccc(F)cc3)nc(NCC3CCCCC3)n2)cc1 |  | 16 mg/L | 0.63 | 32 mg/L (≈ 53.8 µM) | 8 mg/L | 0.38 | 16 mg/L (≈ 26.9 µM) | 32 mg/L (≈ 53.8 µM) | 16 mg/L (≈ 26.9 µM) | 32 mg/L (≈ 53.8 µM) | 32 mg/L (≈ 53.8 µM) | 32 mg/L (≈ 53.8 µM) | 32 mg/L (≈ 53.8 µM) | 32 mg/L (≈ 53.8 µM) | 32 mg/L (≈ 53.8 µM) | IC50 at 24 h [12]: 48.2 mg/L (≈ 81.1 µM); viability at 24 h, 16 microg/ml [13]: 89.8%; hemolysis at 1 h, 64 microg/ml [14]: 3.48%; Activity (Candida albicans [15]): Active
C[C@@H]1[C@H](O)[C@@H](C)/C=C/C=C/C=C/C=C/C=C/C=C/C=C/[C@H](O[C@@H]2O[C@H](C)[C@@H](O)[C@H](N)[C@@H]2O)C[C@@H]2O[C@](O)(C[C@@H](O)C[C@@H](O)[C@H](O)CC[C@@H](O)C[C@@H](O)CC(=O)O[C@H]1C)C[C@H](O)[C@H]2C(=O)O [AMPHOTERICIN B] |  |  |  |  |  |  |  |  |  |  |  |  |  |  |  | hemolysis at 1 h, 8 microg/ml [16]: 50.7%
Oc1ccccc1/C=N/Nc1nc(NCc2ccc(F)cc2)nc(NCc2ccc(F)cc2)n1 | 4 mg/L (≈ 8.67 µM) | 0.5 mg/L | 0.25 | 4 mg/L (≈ 8.67 µM) | 0.5 mg/L | 0.25 | > 64 mg/L | > 64 mg/L | 8 mg/L (≈ 17.3 µM) | 4 mg/L (≈ 8.67 µM) | > 64 mg/L | 8 mg/L (≈ 17.3 µM) | > 64 mg/L | > 64 mg/L | > 64 mg/L | 
Cc1ncc2n1-c1ccc(Cl)cc1C(c1ccccc1F)=NC2 [MIDAZOLAM] |  |  |  |  |  |  |  |  |  |  |  |  |  |  |  | half-life [17]: 3.09 min; microsomal CLint [18]: 1120 µL/min/mg
COc1ccc(Nc2nc(NCc3ccco3)nc(N/N=C/c3cc([N+](=O)[O-])ccc3O)n2)cc1 |  |  |  |  |  |  | 2 mg/L (≈ 4.2 µM) | 8 mg/L (≈ 16.8 µM) | 2 mg/L (≈ 4.2 µM) | 0.5 mg/L (≈ 1.05 µM) | 1 mg/L (≈ 2.1 µM) | 4 mg/L (≈ 8.4 µM) | 4 mg/L (≈ 8.4 µM) | 8 mg/L (≈ 16.8 µM) | 8 mg/L (≈ 16.8 µM) | 
O=[N+]([O-])c1ccc(/C=N/Nc2nc(NCc3ccc(F)cc3)nc(NCc3ccc(F)cc3)n2)c(O)c1 | 2 mg/L (≈ 3.95 µM) | 0.5 mg/L | 0.38 | 2 mg/L (≈ 3.95 µM) | 0.5 mg/L | 0.38 | > 64 mg/L | > 64 mg/L | > 64 mg/L | 2 mg/L (≈ 3.95 µM) | > 64 mg/L | > 64 mg/L | > 64 mg/L | > 64 mg/L | > 64 mg/L | 
